According to patent publication US9611221B2, “Histone demethylase inhibitors” (CELGENE QUANTICEL RESEARCH, INC., priority 2012, dated 2017):

Molecular target: JMJD2C (Homo sapiens (Human), UniProt Q9H3R0)
Experiment: JMJD2C in vitro enzyme inhibition assay (TR-FRET)
Assay type: biochemical
Details: 0.3 nM JMJD2C, 300 nM H3K9me3-biotin peptide, 2 μM alpha-ketoglutaric acid
Description: This assay determines the ability of a test compound to inhibit Jarid1A, Jarid1B, and JMJD2C demethylase activity. Baculovirus expressed Jarid1A (GenBank Accession #NM_001042603, AA1-1090) was purchased from BPS Bioscience (Cat#50110). Baculovirus expressed Jarid1B (GenBank Accession #NM_006618, AA 2-751) was purchased from BPS Bioscience (Cat #50121) or custom made by MolecularThroughput. Baculovirus expressed JMJD2C (GenBank Accession #BC143571, AA 2-372) was purchased from BPS Bioscience (Cat#50105).
The ability of test compounds to inhibit the activity of JMJD2C was determined in 384-well plate format under the following reaction conditions: 0.3 nM JMJD2C, 300 nM H3K9me3-biotin labeled peptide (Anaspec cat #64360), 2 μM alpha-ketoglutaric acid in assay buffer of 50 mM HEPES, pH7.3, 0.005% Brij35, 0.5 mM TCEP, 0.2 mg/ml BSA, 50 μM sodium L-ascorbate, and 2 μM ammonium iron(II) sulfate. Reaction product was determined quantitatively by TR-FRET after the addition of detection reagent Phycolink Streptavidin-allophycocyanin (Prozyme) and Europium-anti-di-methylated histone H3 lysine 9 (H3K9me2) antibody (PerkinElmer) in the presence of 5 mM EDTA in LANCE detection buffer (PerkinElmer) at a final concentration of 50 nM and 1 nM, respectively.
The reaction mixture was incubated at room temperature for 30 minutes, and terminated by the addition of 6 μl of 5 mM EDTA in LANCE detection buffer containing 100 nM Phycolink Streptavidin-allophycocyanin and 2 nM Europium-anti-H3K9me2 antibody. Plates were read by EnVisionMultilabel Reader in TR-FRET mode (excitation at 320 nm, emission at 615 nm and 665 nm) after 1 hour incubation at room temperature. A ratio was calculated (665/615) for each well and fitted to determine inhibition constant (IC50).

JMJD2C, sequence (Q9H3R0 2-372): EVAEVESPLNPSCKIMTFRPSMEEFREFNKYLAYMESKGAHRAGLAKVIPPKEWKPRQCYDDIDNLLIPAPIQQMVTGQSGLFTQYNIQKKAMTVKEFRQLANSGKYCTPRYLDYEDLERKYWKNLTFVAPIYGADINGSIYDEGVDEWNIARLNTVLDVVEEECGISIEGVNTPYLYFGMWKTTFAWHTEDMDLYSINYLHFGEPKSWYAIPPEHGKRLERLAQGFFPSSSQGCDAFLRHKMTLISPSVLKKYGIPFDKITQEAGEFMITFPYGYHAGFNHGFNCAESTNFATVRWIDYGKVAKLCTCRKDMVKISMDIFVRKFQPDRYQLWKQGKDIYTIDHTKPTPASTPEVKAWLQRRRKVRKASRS

Row | Compound | IC50 [nM]
1 | 3-{[(6-chloro-1,2,3,4-tetrahydronaphthalen-1- yl)methyl]amino}pyridine-4-carboxylic acid [Example 68] | 100 to 1000
2 | 3-{[(7-fluoro-3,4-dihydro-2H-chromen-4- yl)methyl]amino}pyridine-4-carboxylic acid [Example 65] | ≤ 100
3 | O=C(O)c1ccncc1NCC1=CCCc2ccc(F)cc21 [Example 51, 3-{[(7-fluoro-3,4-dihydronaphthalen-1-yl)methyl]amino}pyridine-4-carboxylic acid] | 100 to 1000
4 | O=C(O)c1ccncc1NCC1CCCc2c(F)cccc21 (stereo not shown) [Example 54, 3-{[(5-fluoro-1,2,3,4-tetrahydronaphthalen-1-yl)methyl]amino}pyridine-4-carboxylic acid] | 100 to 1000
5 | O=C(O)c1ccncc1NCC1(O)CCCc2c(F)cccc21 (stereo not shown) [Example 55, 3-{[(5-fluoro-1-hydroxy-1,2,3,4-tetrahydronaphthalen-1-yl)methyl]amino}pyridine-4-carboxylic acid] | 100 to 1000
6 | O=C(O)c1ccncc1NC[C@@H]1CCCc2c(F)cccc21 [Example 57, 3-({[(1R)-5-fluoro-1,2,3,4-tetrahydronaphthalen-1-yl]methyl}amino)pyridine-4-carboxylic acid] | 100 to 1000
7 | CC1(C)CCC(CNc2cnccc2C(=O)O)c2ccccc21 (stereo not shown) [Example 59, 3-{[(4,4-dimethyl-1,2,3,4-tetrahydronaphthalen-1-yl)methyl]amino}pyridine-4-carboxylic acid] | 100 to 1000
8 | COc1ccc2c(c1)CCC[C@@H]2CNc1cnccc1C(=O)O [Example 61, 3-({[(1S)-6-methoxy-1,2,3,4-tetrahydronaphthalen-1-yl]methyl}amino)pyridine-4-carboxylic acid] | 100 to 1000
9 | COc1ccc2c(c1)CCC[C@H]2CNc1cnccc1C(=O)O [Example 62, 3-({[(1R)-6-methoxy-1,2,3,4-tetrahydronaphthalen-1-yl]methyl}amino)pyridine-4-carboxylic acid] | 100 to 1000
10 | CC(C)Oc1ccc2c(c1)CCCC2CNc1cnccc1C(=O)O (stereo not shown) [Example 64] | 100 to 1000
11 | O=C(O)c1ccncc1NCC1CCOc2cc(-c3ccccc3)ccc21 (stereo not shown) [Example 69, 3-{[(7-phenyl-3,4-dihydro-2H-chromen-4-yl)methyl]amino}pyridine-4-carboxylic acid] | 100 to 1000
12 | O=C(O)c1ccncc1NCC1CCOc2cc(F)ccc21 (stereo not shown) [Example 70, 3-{[(7-fluoro-3,4-dihydro-2H-chromen-4-yl)methyl]amino}pyridine-4-carboxylic acid] | 100 to 1000
13 | O=C(O)c1ccncc1NCC1CCOc2c(F)cccc21 (stereo not shown) [Example 71, 3-{[(8-fluoro-3,4-dihydro-2H-chromen-4-yl)methyl]amino}pyridine-4-carboxylic acid] | ≤ 100
14 | O=C(O)c1ccncc1NCC1CCCc2ccc(Cl)cc21 (stereo not shown) [Example 72, 3-{[(7-chloro-1,2,3,4-tetrahydronaphthalen-1-yl)methyl]amino}pyridine-4-carboxylic acid] | 100 to 1000
15 | COc1cccc2c1CCCC2CNc1cnccc1C(=O)O (stereo not shown) [Example 74, 3-{[(5-methoxy-1,2,3,4-tetrahydronaphthalen-1-yl)methyl]amino}pyridine-4-carboxylic acid] | 100 to 1000
16 | O=C(O)c1ccncc1NCC1CCOc2cc(C3CC3)ccc21 (stereo not shown) [Example 75, 3-{[(7-cyclopropyl-3,4-dihydro-2H-chromen-4-yl)methyl]amino}pyridine-4-carboxylic acid] | 100 to 1000
17 | O=C(O)c1ccncc1NCC1CCCc2c(OCC3CC3)cccc21 (stereo not shown) [Example 76] | 1000 to 10000
18 | O=C(O)c1ccncc1NCC1CCCc2c(Oc3ccccc3)cccc21 (stereo not shown) [Example 77, 3-{[(5-phenoxy-1,2,3,4-tetrahydronaphthalen-1-yl)methyl]amino}pyridine-4-carboxylic acid] | 1000 to 10000
19 | O=C(O)c1ccncc1NCC1CCSc2ccccc21 (stereo not shown) [Example 78, 3-[(3,4-dihydro-2H-thiochromen-4-ylmethyl)amino]pyridine-4-carboxylic acid] | 100 to 1000
20 | O=C(O)c1ccncc1NCC1CCCc2cc(OCCC(F)(F)F)ccc21 (stereo not shown) [Example 79] | 100 to 1000
21 | CN1CCC(CNc2cnccc2C(=O)O)c2ccccc21 (stereo not shown) [Example 82, 3{[(1-methyl-1,2,3,4-tetrahydroquinolin-4-yl)methyl]amino}pyridine-4-carboxylic acid] | 100 to 1000
22 | O=C(O)c1ccncc1NC[C@H]1CCOc2cc(C3CC3)ccc21 [Example 87, 3-({[(4S)-7-cyclopropyl-3,4-dihydro-2H-chromen-4-yl]methyl}amino)pyridine-4-carboxylic acid] | ≤ 100
23 | O=C(O)c1ccncc1NCC1CCOc2cc(CCC3CC3)ccc21 (stereo not shown) [Example 91, 3-({[7-(2-cyclopropylethyl)-3,4-dihydro-2H-chromen-4-yl]methyl}amino)pyridine-4-carboxylic acid] | 100 to 1000
24 | O=C(O)c1ccncc1NC[C@H]1CCOc2cc(-c3ccc(F)cc3)ccc21 [Example 93, 3-({[(4S)-7-(4-fluorophenyl)-3,4-dihydro-2H-chromen-4-yl]methyl}amino)pyridine-4-carboxylic acid] | 100 to 1000

Further lines, results first:

Row | IC50 [nM] | Compound
25 | 100 to 1000 | 3-{[(6-chloro-1-hydroxy-1,2,3,4- tetrahydronaphthalen-1- yl)methyl]amino}pyridine-4-carboxylic acid [Example 67]
26 | 100 to 1000 | CC(C)Oc1ccc(CNc2cnccc2C(=O)O)cc1 [Example 11, 3-{[4-(propan-2-yloxy)benzyl]amino}pyridine-4-carboxylic acid]
27 | 1000 to 10000 | Cc1cc(C)c2c(c1)C(CNc1cnccc1C(=O)O)CCC2 (stereo not shown) [Example 52, 3-{[(5,7-dimethyl-1,2,3,4-tetrahydronaphthalen-1-yl)methyl]amino}pyridine-4-carboxylic acid]
28 | ≤ 100 | O=C(O)c1ccncc1NC[C@H]1CCCc2c(F)cccc21 [Example 56, 3-({[(1S)-5-fluoro-1,2,3,4-tetrahydronaphthalen-1-yl]methyl}amino)pyridine-4-carboxylic acid]
29 | 100 to 1000 | O=C(O)c1ccncc1NCC1CCOc2cc(Cl)ccc21 (stereo not shown) [Example 66, 3-{[(7-chloro-3,4-diydro-2H-chromen-4-y)methyl]amino}pyridine-4-carboxylic acid]
30 | 100 to 1000 | O=C(O)c1ccncc1NCC1CCCc2ccc(-c3ccccc3)cc21 (stereo not shown) [Example 73, 3-{[(7-phenyl-1,2,3,4-tetrahydronaphthalen-1-yl)methyl]amino}pyridine-4-carboxylic acid]
31 | 100 to 1000 | O=C(O)c1ccncc1NCC1CCCc2cc(OCC3CC3)ccc21 (stereo not shown) [Example 81]
32 | 100 to 1000 | O=C(O)c1ccncc1NC[C@H]1CCOc2cc(-c3ccccc3)ccc21 [Example 83, 3-({[(4S)-7-phenyl-3,4-dihydro-2H-chromen-4-yl]methyl}amino)pyridine-4-carboxylic acid]
33 | 100 to 1000 | O=C(O)c1ccncc1NC[C@@H]1CCOc2cc(-c3ccccc3)ccc21 [Example 84, 3-({[(4R)-7-phenyl-3,4-dihydro-2H-chromen-4-yl]methyl}amino)pyridine-4-carboxylic acid]
34 | 100 to 1000 | O=C(O)c1ccncc1NC[C@H]1CCOc2cc(-c3cccc(F)c3)ccc21 [Example 85, 3-({[(4S)-7-(3-fluorophenyl)-3,4-dihydro-2H-chromen-4-yl]methyl}amino)pyridine-4-carboxylic acid]
35 | 1000 to 10000 | O=C(O)c1ccncc1NC[C@@H]1CCOc2cc(-c3cccc(F)c3)ccc21 [Example 86, 3-({[(4R)-7-(3-fluorophenyl)-3,4-dihydro-2H-chromen-4-yl]methyl}amino)pyridine-4-carboxylic acid]
36 | 100 to 1000 | O=C(O)c1ccncc1NC[C@@H]1CCOc2cc(C3CC3)ccc21 [Example 88, 3-({[(4R)-7-cyclopropyl-3,4-dihydro-2H-chromen-4-yl]methyl}amino)pyridine-4-carboxylic acid]
37 | 100 to 1000 | O=C(O)c1ccncc1NCC1CCCc2cc(OCCc3ccccc3)ccc21 (stereo not shown) [Example 89, 3-({[6-(2-phenylethoxy)-1,2,3,4-tetrahydronaphthalen-1-yl]methyl}amino)pyridin-4-carboxylic acid]
38 | 100 to 1000 | O=C(O)c1ccncc1NCC1CCCc2cc(OCC(F)(F)F)ccc21 (stereo not shown) [Example 90, 3-({[6-(2,2,2-trifluoroethoxy)-1,2,3,4-tetrahydronaphthalen-1-yl]methyl}amino)pyridine-4-carboxylic acid]
39 | 1000 to 10000 | O=C(O)c1ccncc1NCC1CCCc2cc(OC(F)(F)F)ccc21 (stereo not shown) [Example 92, 3-({[6-(trifluoromethoxy)-1,2,3,4-tetrahydronaphthalen-1-yl]methyl}amino)pyridine-4-carboxylic acid]
40 | 1000 to 10000 | O=C(O)c1ccncc1NC[C@@H]1CCOc2cc(-c3ccc(F)cc3)ccc21 [Example 94, 3-({[(4R)-7-(4-fluorophenyl)-3,4-dihydro-2H-chromen-4-yl]methyl}amino)pyridine-4-carboxylic acid]
